Patent US6673565B2 (priority 1999, dated 2004)

How the values were obtained:
Butyrylcholinesterase = Butyrylcholinesterase (Homo sapiens, UniProt P06276); assay type: biochemical
Urease = Urease (Canavalia ensiformis, UniProt P07374); assay type: biochemical
Urease, sequence (P07374 whole entry, looked up): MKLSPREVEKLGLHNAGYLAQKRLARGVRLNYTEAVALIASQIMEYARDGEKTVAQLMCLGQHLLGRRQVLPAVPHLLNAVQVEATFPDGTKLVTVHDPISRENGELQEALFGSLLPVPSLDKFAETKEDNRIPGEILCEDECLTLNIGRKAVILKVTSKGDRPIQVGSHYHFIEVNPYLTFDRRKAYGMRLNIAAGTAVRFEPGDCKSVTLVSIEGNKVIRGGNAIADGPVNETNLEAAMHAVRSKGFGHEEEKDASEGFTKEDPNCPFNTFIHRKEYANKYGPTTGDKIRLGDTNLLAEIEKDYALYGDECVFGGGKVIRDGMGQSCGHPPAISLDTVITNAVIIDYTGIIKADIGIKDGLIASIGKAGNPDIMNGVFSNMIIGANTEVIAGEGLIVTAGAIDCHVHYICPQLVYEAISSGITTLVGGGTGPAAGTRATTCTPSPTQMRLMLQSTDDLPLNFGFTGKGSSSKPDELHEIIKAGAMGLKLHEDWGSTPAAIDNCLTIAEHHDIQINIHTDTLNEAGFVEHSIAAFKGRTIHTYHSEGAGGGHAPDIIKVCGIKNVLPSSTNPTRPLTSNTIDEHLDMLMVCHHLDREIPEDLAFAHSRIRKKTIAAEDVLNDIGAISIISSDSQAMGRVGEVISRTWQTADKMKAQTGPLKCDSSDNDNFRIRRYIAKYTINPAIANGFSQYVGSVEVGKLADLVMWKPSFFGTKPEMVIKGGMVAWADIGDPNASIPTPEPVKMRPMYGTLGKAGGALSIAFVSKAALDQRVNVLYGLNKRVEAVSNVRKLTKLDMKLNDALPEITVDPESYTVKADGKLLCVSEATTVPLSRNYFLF

Butyrylcholinesterase, sequence (P06276 29-602): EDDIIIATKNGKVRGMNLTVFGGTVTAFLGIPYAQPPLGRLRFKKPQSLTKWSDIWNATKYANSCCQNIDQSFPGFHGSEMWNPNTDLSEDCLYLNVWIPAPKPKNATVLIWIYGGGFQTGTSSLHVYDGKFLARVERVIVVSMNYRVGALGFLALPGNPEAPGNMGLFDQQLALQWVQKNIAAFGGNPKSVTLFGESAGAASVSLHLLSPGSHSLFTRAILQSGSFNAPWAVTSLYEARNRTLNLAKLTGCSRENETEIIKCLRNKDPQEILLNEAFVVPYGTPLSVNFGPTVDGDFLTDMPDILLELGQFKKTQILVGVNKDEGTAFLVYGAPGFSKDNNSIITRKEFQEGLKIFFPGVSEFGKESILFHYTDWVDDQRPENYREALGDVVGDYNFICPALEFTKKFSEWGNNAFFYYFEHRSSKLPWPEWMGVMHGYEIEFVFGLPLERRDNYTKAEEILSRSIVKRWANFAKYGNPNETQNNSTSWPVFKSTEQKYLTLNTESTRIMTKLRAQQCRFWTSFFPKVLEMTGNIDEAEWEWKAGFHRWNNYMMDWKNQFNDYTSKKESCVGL

SMILES	Inhibition of BChE polymer used to wipe paraoxon-containing beakers (Butyrylcholinesterase)	Color change of urease/m-cresol purple polymer disks (Urease)
CCOP(=O)(OCC)Oc1ccc([N+](=O)[O-])cc1 [paraoxon, Paraoxon]	complete inhibition	–
NC(N)=O [urea]	–	transition from yellow to blue
